In US12679843B2, “Pyrrolopyrimidine amines as complement inhibitors” (BioCryst Pharmaceuticals, Inc., priority 2020, dated 2026):

These compounds were tested against Factor D (Homo sapiens, UniProt P00746) (assay: Factor D esterolytic assay (Z-Lys-SBzl thioester substrate, DTNB, 405 nm)). Conditions: substrate Z-Lys-SBzl 1.29 mM, 100 mM HEPES, 500 mM NaCl, pH 7.5, 10% DMSO, tested a minimum of three times.
Factor D, sequence (P00746 26-253): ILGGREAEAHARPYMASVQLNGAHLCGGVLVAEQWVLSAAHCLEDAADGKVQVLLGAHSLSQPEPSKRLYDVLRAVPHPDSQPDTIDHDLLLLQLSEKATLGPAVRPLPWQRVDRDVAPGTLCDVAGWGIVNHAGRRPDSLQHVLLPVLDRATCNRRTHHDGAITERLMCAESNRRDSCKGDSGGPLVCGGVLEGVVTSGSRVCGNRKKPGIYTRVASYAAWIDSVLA
Type: biochemical
How it was run: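 Run in pH 7.5 HEPES (100 mM) with 500 mM NaCl and 10% DMSO, with compound preincubated at room temperature or not before adding 1.29 mM Z-Lys-SBzl. Free thiol released by Factor D reacts with DTNB, and rate is followed at 405 nm minus 690 nm over 600 s. IC50 derives from rate-based inhibition, minimum three replicates.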
`Nc1ncnc2c1nc(Br)n2CC(=O)N1C[C@H](F)C[C@H]1C(=O)NCc1cccc(Cl)c1F` [Compound 110d, (2S,4R)-1-(2-(6-amino-8-bromo-9H-purin-9-yl)acetyl)-N-(3-chloro-2-fluorobenzyl)-4-fluoropyrrolidine-2-carboxamide] gave an IC50 of over 1000 nM. Work on `CC(C)=C(F)CNC(=O)[C@@H]1C[C@H]2C[C@H]2N1C(=O)Cn1cnc2c(N)ncnc21` [Compound 111b, (1R,3S,5R)-2-(2-(6-amino-9H-purin-9-yl)acetyl)-N-(2-fluoro-3-methylbut-2-en-1-yl)-2-azabicyclo[3.1.0]hexane-3-carboxamide] yielded an IC50 of 100 to 1000 nM. For `Nc1ncnc2c1ncn2CC(=O)N1[C@@H]2C[C@@H]2C[C@H]1C(=O)Nc1cncc(Br)n1` [Compound 112b, (1R,3S,5R)-2-(2-(6-amino-9H-purin-9-yl)acetyl)-N-(6-bromopyrazin-2-yl)-2-azabicyclo[3.1.0]hexane-3-carboxamide], the IC50 was under 100 nM. Compound `Cc1ccc(Br)nc1NC(=O)[C@@H]1C[C@@]2(C)C[C@H]2N1C(=O)Cn1cnc2c(N)ncnc21` [Compound 113a, (1R,3S,5R)-2-(2-(6-amino-9H-purin-9-yl)acetyl)-N-(6-bromo-3-methylpyridin-2-yl)-5-methyl-2-azabicyclo[3.1.0]hexane-3-carboxamide] has an IC50 of 100 to 1000 nM. `Nc1ncnc2c1c(-c1cccnc1)cn2CC(=O)N1C[C@H](F)C[C@H]1C(=O)NCc1cccc(Cl)c1F` [Compound 114f, (2S,4R)-1-(2-(4-amino-5-(pyridin-3-yl)-7H-pyrrolo[2,3-d]pyrimidin-7-yl)acetyl)-N-(3-chloro-2-fluorobenzyl)-4-fluoropyrrolidine-2-carboxamide] gave an IC50 of under 100 nM. `NCc1cccc(-c2cn(CC(=O)N3C[C@H](F)C[C@H]3C(=O)NCc3cccc(Cl)c3F)c3ncnc(N)c23)c1` [Compound 115e, (2S,4R)-1-(2-(4-amino-5-(3-(aminomethyl)phenyl)-7H-pyrrolo[2,3-d]pyrimidin-7-yl)acetyl)-N-(3-chloro-2-fluorobenzyl)-4-fluoropyrrolidine-2-carboxamide] was tested, and the IC50 was 100 to 1000 nM. Compound `Nc1ncnc2c1c(Br)cn2CC(=O)N1C[C@H](F)C[C@H]1C(=O)NCc1cccc(Cl)c1F` [Compound 116b, (2S,4R)-1-(2-(4-amino-5-bromo-7H-pyrrolo[2,3-d]pyrimidin-7-yl)acetyl)-N-(3-chloro-2-fluorobenzyl)-4-fluoropyrrolidine-2-carboxamide] has an IC50 of 100 to 1000 nM. For `Cc1ncc(-c2cn(CC(=O)N3C[C@H](F)C[C@H]3C(=O)NCc3cccc(Cl)c3F)c3ncnc(N)c23)cn1` [Compound 117d, (2S,4R)-1-(2-(4-amino-5-(2-methylpyrimidin-5-yl)-7H-pyrrolo[2,3-d]pyrimidin-7-yl)acetyl)-N-(3-chloro-2-fluorobenzyl)-4-fluoropyrrolidine-2-carboxamide], the IC50 was 100 to 1000 nM. With `Cc1ncc(-c2cn(CC(=O)N3C[C@H](F)C[C@H]3C(=O)Nc3nc(Br)ccc3C)c3ncnc(N)c23)cn1` [Compound 118a, (2S,4R)-1-(2-(4-amino-5-(2-methylpyrimidin-5-yl)-7H-pyrrolo[2,3-d]pyrimidin-7-yl)acetyl)-N-(6-bromo-3-methylpyridin-2-yl)-4-fluoropyrrolidine-2-carboxamide] the IC50 was over 1000 nM. For `Nc1ncnc2c1ncn2CC(=O)N1CCC[C@H]1C(=O)NCc1cccc(Cl)c1F` [Compound 119a, (S)-1-(2-(6-amino-9H-purin-9-yl)acetyl)-N-(3-chloro-2-fluorobenzyl)pyrrolidine-2-carboxamide], the IC50 was 100 to 1000 nM. For `Nc1ncnc2c1ncn2CC(=O)N1CC2(CC2)C[C@H]1C(=O)NCc1cccc(Cl)c1F` [Compound 120c, (S)-5-(2-(6-amino-9H-purin-9-yl)acetyl)-N-(3-chloro-2-fluorobenzyl)-5-azaspiro[2.4]heptane-6-carboxamide], the IC50 was over 1000 nM. In the case of `C[C@@H]1C[C@@H](C(=O)NCc2cccc(Cl)c2F)N(C(=O)Cn2cnc3c(N)ncnc32)C1` [Compound 121d, (2S,4R)-1-(2-(6-amino-9H-purin-9-yl)acetyl)-N-(3-chloro-2-fluorobenzyl)-4-methylpyrrolidine-2-carboxamide], the IC50 is reported as over 1000 nM. In the case of `C[C@@]1(F)C[C@@H](C(=O)NCc2cccc(Cl)c2F)N(C(=O)Cn2cnc3c(N)ncnc32)C1` [Compound 122c, (2S,4R)-1-(2-(6-amino-9H-purin-9-yl)acetyl)-N-(3-chloro-2-fluorobenzyl)-4-fluoro-4-methylpyrrolidine-2-carboxamide], the IC50 is reported as 100 to 1000 nM. `NCCNc1ncnc2c1ncn2CC(=O)N1C[C@H](F)C[C@H]1C(=O)NCc1cccc(Cl)c1F` [Compound 123g, (2S,4R)-1-(2-(6-((2-aminoethyl)amino)-9H-purin-9-yl)acetyl)-N-(3-chloro-2-fluorobenzyl)-4-fluoropyrrolidine-2-carboxamide] showed an IC50 of over 1000 nM. `Nc1ncnc2c1ncn2CC(=O)N1[C@@H]2CC[C@@H](C2)[C@H]1C(=O)NCc1cccc(Cl)c1F` [Compound 124b, (1R,3S,4S)-2-(2-(6-amino-9H-purin-9-yl)acetyl)-N-(3-chloro-2-fluorobenzyl)-2-azabicyclo[2.2.1]heptane-3-carboxamide] gave an IC50 of over 1000 nM. `Nc1ncnc2c1c(F)cn2CC(=O)N1C[C@H](F)C[C@H]1C(=O)NCc1cccc(Cl)c1F` [Compound 125d, (2S,4R)-1-(2-(4-amino-5-fluoro-7H-pyrrolo[2,3-d]pyrimidin-7-yl)acetyl)-N-(3-chloro-2-fluorobenzyl)-4-fluoropyrrolidine-2-carboxamide] was tested, and the IC50 was 100 to 1000 nM. For `Nc1ncnc2c1c(-c1c[nH]c3ccccc13)cn2CC(=O)N1C[C@H](F)C[C@H]1C(=O)NCc1cccc(Cl)c1F` [Compound 126f, (2S,4R)-1-(2-(4-amino-5-(1H-indol-3-yl)-7H-pyrrolo[2,3-d]pyrimidin-7-yl)acetyl)-N-(3-chloro-2-fluorobenzyl)-4-fluoropyrrolidine-2-carboxamide], the IC50 was 100 to 1000 nM. Work on `COC(=O)c1cnc2c(ccn2CC(=O)N2[C@@H]3C[C@@H]3C[C@H]2C(=O)Nc2cccc(Br)n2)c1` [Compound 127d, methyl 1-(2-((1R,3S,5R)-3-((6-bromopyridin-2-yl)carbamoyl)-2-azabicyclo[3.1.0]hexan-2-yl)-2-oxoethyl)-1H-pyrrolo[2,3-b]pyridine-5-carboxylate] yielded an IC50 of over 1000 nM. Work on `O=C(O)c1cnc2c(ccn2CC(=O)N2[C@@H]3C[C@@H]3C[C@H]2C(=O)Nc2cccc(Br)n2)c1` [Compound 128a, 1-(2-((1R,3S,5R)-3-((6-bromopyridin-2-yl)carbamoyl)-2-azabicyclo[3.1.0]hexan-2-yl)-2-oxoethyl)-1H-pyrrolo[2,3-b]pyridine-5-carboxylic acid] yielded an IC50 of over 1000 nM. `Nc1cn(CC(=O)N2[C@@H]3C[C@@H]3C[C@H]2C(=O)Nc2cccc(Br)n2)c2ncncc12` [Compound 129f, (1R,3S,5R)-2-(2-(5-amino-7H-pyrrolo[2,3-d]pyrimidin-7-yl)acetyl)-N-(6-bromopyridin-2-yl)-2-azabicyclo[3.1.0]hexane-3-carboxamide] was tested, and the IC50 was 100 to 1000 nM. `N#Cc1cn(CC(=O)N2C[C@H](F)C[C@H]2C(=O)NCc2cccc(Cl)c2F)c2ncnc(N)c12` [Compound 130e, (2S,4R)-1-(2-(4-amino-5-cyano-7H-pyrrolo[2,3-d]pyrimidin-7-yl)acetyl)-N-(3-chloro-2-fluorobenzyl)-4-fluoropyrrolidine-2-carboxamide] showed an IC50 of 100 to 1000 nM. For `Nc1ccnc2c1ccn2CC(=O)N1C[C@H](F)C[C@H]1C(=O)NCc1cccc(Cl)c1F` [Compound 131e, (2S,4R)-1-(2-(4-amino-1H-pyrrolo[2,3-b]pyridin-1-yl)acetyl)-N-(3-chloro-2-fluorobenzyl)-4-fluoropyrrolidine-2-carboxamide], the IC50 was 100 to 1000 nM. `Cc1nc(N)c2ccn(CC(=O)N3C[C@H](F)C[C@H]3C(=O)NCc3cccc(Cl)c3F)c2n1` [Compound 132d, (2S,4R)-1-(2-(4-amino-2-methyl-7H-pyrrolo[2,3-d]pyrimidin-7-yl)acetyl)-N-(3-chloro-2-fluorobenzyl)-4-fluoropyrrolidine-2-carboxamide] showed an IC50 of over 1000 nM. Compound `Nc1ncnc2c1c(-c1cc3ccccc3[nH]1)cn2CC(=O)N1C[C@H](F)C[C@H]1C(=O)NCc1cccc(Cl)c1F` [Compound 133b, (2S,4R)-1-(2-(4-amino-5-(1H-indol-2-yl)-7H-pyrrolo[2,3-d]pyrimidin-7-yl)acetyl)-N-(3-chloro-2-fluorobenzyl)-4-fluoropyrrolidine-2-carboxamide] has an IC50 of under 100 nM. In the case of `Nc1ncnc2c1c(-c1cccc3cc[nH]c13)cn2CC(=O)N1C[C@H](F)C[C@H]1C(=O)NCc1cccc(Cl)c1F` [Compound 134b, (2S,4R)-1-(2-(4-amino-5-(1H-indol-7-yl)-7H-pyrrolo[2,3-d]pyrimidin-7-yl)acetyl)-N-(3-chloro-2-fluorobenzyl)-4-fluoropyrrolidine-2-carboxamide], the IC50 is reported as under 100 nM. `Nc1ncnc2c1c(-c1ccccc1)cn2CC(=O)N1C[C@H](F)C[C@H]1C(=O)NCc1cccc(Cl)c1F` [Compound 135a, (2S,4R)-1-(2-(4-amino-5-phenyl-7H-pyrrolo[2,3-d]pyrimidin-7-yl)acetyl)-N-(3-chloro-2-fluorobenzyl)-4-fluoropyrrolidine-2-carboxamide] was tested, and the IC50 was 100 to 1000 nM. With `Nc1ncnc2c1c(-c1ccccc1Cl)cn2CC(=O)N1C[C@H](F)C[C@H]1C(=O)NCc1cccc(Cl)c1F` [Compound 136a, (2S,4R)-1-(2-(4-amino-5-(2-chlorophenyl)-7H-pyrrolo[2,3-d]pyrimidin-7-yl)acetyl)-N-(3-chloro-2-fluorobenzyl)-4-fluoropyrrolidine-2-carboxamide] the IC50 was over 1000 nM. With `Nc1ncnc2c1c(-c1ccc3cc[nH]c3c1)cn2CC(=O)N1C[C@H](F)C[C@H]1C(=O)NCc1cccc(Cl)c1F` [Compound 137b, (2S,4R)-1-(2-(4-amino-5-(1H-indol-6-yl)-7H-pyrrolo[2,3-d]pyrimidin-7-yl)acetyl)-N-(3-chloro-2-fluorobenzyl)-4-fluoropyrrolidine-2-carboxamide] the IC50 was under 100 nM.
